Test results from ChEMBL document CHEMBL2429768, “Eco-friendly synthesis and antimicrobial activities of substituted-5-(1H-indol-3-yl)methylene)-2,2-dimethyl-1,3-dioxane-4,6-dione derivatives” (2013).
In brackets after ≈: the same amount, converted by molar mass.

Experiments:
Format in all cases: functional
Aspergillus niger [1] = test: Antifungal activity against Aspergillus niger at 50 ug/ml after 72 hrs by agar well diffusion method; conditions: read-out: DIZ
Fusarium oxysporum [2] = test: Antifungal activity against Fusarium oxysporum at 500 ug/ml after 72 hrs by agar well diffusion method; conditions: read-out: DIZ
Fusarium oxysporum [3] = test: Antifungal activity against Fusarium oxysporum at 300 ug/ml after 72 hrs by agar well diffusion method; conditions: read-out: DIZ
Fusarium oxysporum [4] = test: Antifungal activity against Fusarium oxysporum at 200 ug/ml after 72 hrs by agar well diffusion method; conditions: read-out: DIZ
Fusarium oxysporum [5] = test: Antifungal activity against Fusarium oxysporum at 100 ug/ml after 72 hrs by agar well diffusion method; conditions: read-out: DIZ
Fusarium oxysporum [6] = test: Antifungal activity against Fusarium oxysporum at 50 ug/ml after 72 hrs by agar well diffusion method; conditions: read-out: DIZ
Rhizoctonia solani [7] = test: Antifungal activity against Rhizoctonia solani at 500 ug/ml after 72 hrs by agar well diffusion method; conditions: read-out: DIZ
Rhizoctonia solani [8] = test: Antifungal activity against Rhizoctonia solani at 300 ug/ml after 72 hrs by agar well diffusion method; conditions: read-out: DIZ
Rhizoctonia solani [9] = test: Antifungal activity against Rhizoctonia solani at 200 ug/ml after 72 hrs by agar well diffusion method; conditions: read-out: DIZ
Rhizoctonia solani [10] = test: Antifungal activity against Rhizoctonia solani at 100 ug/ml after 72 hrs by agar well diffusion method; conditions: read-out: DIZ
Rhizoctonia solani [11] = test: Antifungal activity against Rhizoctonia solani at 50 ug/ml after 72 hrs by agar well diffusion method; conditions: read-out: DIZ
Bacillus subtilis [12] = test: Antibacterial activity against Bacillus subtilis at 500 ug/ml after 24 hrs by agar well diffusion method; conditions: read-out: DIZ
Bacillus subtilis [13] = test: Antibacterial activity against Bacillus subtilis at 300 ug/ml after 24 hrs by agar well diffusion method; conditions: read-out: DIZ
Bacillus subtilis [14] = test: Antibacterial activity against Bacillus subtilis at 200 ug/ml after 24 hrs by agar well diffusion method; conditions: read-out: DIZ
Bacillus subtilis [15] = test: Antibacterial activity against Bacillus subtilis at 100 ug/ml after 24 hrs by agar well diffusion method; conditions: read-out: DIZ
Bacillus subtilis [16] = test: Antibacterial activity against Bacillus subtilis at 50 ug/ml after 24 hrs by agar well diffusion method; conditions: read-out: DIZ
Staphylococcus aureus [17] = test: Antibacterial activity against Staphylococcus aureus ATCC 6538 at 500 ug/ml after 24 hrs by agar well diffusion method; conditions: ATCC 6538, 24 h, read-out: DIZ
Staphylococcus aureus [18] = test: Antibacterial activity against Staphylococcus aureus ATCC 6538 at 300 ug/ml after 24 hrs by agar well diffusion method; conditions: ATCC 6538, 24 h, read-out: DIZ
Staphylococcus aureus [19] = test: Antibacterial activity against Staphylococcus aureus ATCC 6538 at 200 ug/ml after 24 hrs by agar well diffusion method; conditions: ATCC 6538, 24 h, read-out: DIZ
Staphylococcus aureus [20] = test: Antibacterial activity against Staphylococcus aureus ATCC 6538 at 100 ug/ml after 24 hrs by agar well diffusion method; conditions: ATCC 6538, 24 h, read-out: DIZ
Escherichia coli [21] = test: Antibacterial activity against Escherichia coli ATCC 8739 at 300 ug/ml after 24 hrs by agar well diffusion method; conditions: ATCC 8739, 24 h, read-out: DIZ
Escherichia coli [22] = test: Antibacterial activity against Escherichia coli ATCC 8739 at 200 ug/ml after 24 hrs by agar well diffusion method; conditions: ATCC 8739, 24 h, read-out: DIZ
Escherichia coli [23] = test: Antibacterial activity against Escherichia coli ATCC 8739 at 100 ug/ml after 24 hrs by agar well diffusion method; conditions: ATCC 8739, 24 h, read-out: DIZ
Escherichia coli [24] = test: Antibacterial activity against Escherichia coli ATCC 8739 at 50 ug/ml after 24 hrs by agar well diffusion method; conditions: ATCC 8739, 24 h, read-out: DIZ
Klebsiella pneumoniae [25] = test: Antibacterial activity against Klebsiella pneumoniae at 500 ug/ml after 24 hrs by agar well diffusion method; conditions: read-out: DIZ
Klebsiella pneumoniae [26] = test: Antibacterial activity against Klebsiella pneumoniae at 300 ug/ml after 24 hrs by agar well diffusion method; conditions: read-out: DIZ
Klebsiella pneumoniae [27] = test: Antibacterial activity against Klebsiella pneumoniae at 200 ug/ml after 24 hrs by agar well diffusion method; conditions: read-out: DIZ
Klebsiella pneumoniae [28] = test: Antibacterial activity against Klebsiella pneumoniae at 50 ug/ml after 24 hrs by agar well diffusion method; conditions: read-out: DIZ
Escherichia coli [29] = test: Antibacterial activity against Escherichia coli ATCC 8739 at 500 ug/ml after 24 hrs by agar well diffusion method; conditions: ATCC 8739, 24 h, read-out: DIZ
Klebsiella pneumoniae [30] = test: Antibacterial activity against Klebsiella pneumoniae at 100 ug/ml after 24 hrs by agar well diffusion method; conditions: read-out: DIZ
Staphylococcus aureus [31] = test: Antibacterial activity against Staphylococcus aureus ATCC 6538 at 50 ug/ml after 24 hrs by agar well diffusion method; conditions: ATCC 6538, 24 h, read-out: DIZ
Aspergillus flavus [32] = test: Antifungal activity against Aspergillus flavus at 50 ug/ml after 72 hrs by agar well diffusion method; conditions: read-out: DIZ
Aspergillus flavus [33] = test: Antifungal activity against Aspergillus flavus at 100 ug/ml after 72 hrs by agar well diffusion method; conditions: read-out: DIZ
Aspergillus flavus [34] = test: Antifungal activity against Aspergillus flavus after 72 hrs by agar well diffusion method
Aspergillus niger [35] = test: Antifungal activity against Aspergillus niger after 72 hrs by agar well diffusion method
Fusarium oxysporum [36] = test: Antifungal activity against Fusarium oxysporum after 72 hrs by agar well diffusion method
Rhizoctonia solani [37] = test: Antifungal activity against Rhizoctonia solani after 72 hrs by agar well diffusion method
Bacillus subtilis [38] = test: Antibacterial activity against Bacillus subtilis after 24 hrs by agar well diffusion method
Staphylococcus aureus [39] = test: Antibacterial activity against Staphylococcus aureus ATCC 6538 after 24 hrs by agar well diffusion method; conditions: ATCC 6538, 24 h
Escherichia coli [40] = test: Antibacterial activity against Escherichia coli ATCC 8739 after 24 hrs by agar well diffusion method; conditions: ATCC 8739, 24 h
Klebsiella pneumoniae [41] = test: Antibacterial activity against Klebsiella pneumoniae after 24 hrs by agar well diffusion method
Aspergillus flavus [42] = test: Antifungal activity against Aspergillus flavus at 500 ug/ml after 72 hrs by agar well diffusion method; conditions: read-out: DIZ
Aspergillus flavus [43] = test: Antifungal activity against Aspergillus flavus at 300 ug/ml after 72 hrs by agar well diffusion method; conditions: read-out: DIZ
Aspergillus flavus [44] = test: Antifungal activity against Aspergillus flavus at 200 ug/ml after 72 hrs by agar well diffusion method; conditions: read-out: DIZ
Aspergillus niger [45] = test: Antifungal activity against Aspergillus niger at 500 ug/ml after 72 hrs by agar well diffusion method; conditions: read-out: DIZ
Aspergillus niger [46] = test: Antifungal activity against Aspergillus niger at 300 ug/ml after 72 hrs by agar well diffusion method; conditions: read-out: DIZ
Aspergillus niger [47] = test: Antifungal activity against Aspergillus niger at 200 ug/ml after 72 hrs by agar well diffusion method; conditions: read-out: DIZ
Aspergillus niger [48] = test: Antifungal activity against Aspergillus niger at 100 ug/ml after 72 hrs by agar well diffusion method; conditions: read-out: DIZ

CC1(C)OC(=O)C(=Cc2c[nH]c3ccc([N+](=O)[O-])cc23)C(=O)O1
zone of inhibition at 50 µg/mL (Aspergillus niger [1]): 7 mm | zone of inhibition at 500 µg/mL (Fusarium oxysporum [2]): 31 mm | zone of inhibition at 300 µg/mL (Fusarium oxysporum [3]): 21 mm | zone of inhibition at 200 µg/mL (Fusarium oxysporum [4]): 17 mm | zone of inhibition at 100 µg/mL (Fusarium oxysporum [5]): 14 mm | zone of inhibition at 50 µg/mL (Fusarium oxysporum [6]): 10 mm | zone of inhibition at 500 µg/mL (Rhizoctonia solani [7]): 32 mm | zone of inhibition at 300 µg/mL (Rhizoctonia solani [8]): 24 mm | zone of inhibition at 200 µg/mL (Rhizoctonia solani [9]): 19 mm | zone of inhibition at 100 µg/mL (Rhizoctonia solani [10]): 15 mm | zone of inhibition at 50 µg/mL (Rhizoctonia solani [11]): 10 mm | zone of inhibition at 500 µg/mL (Bacillus subtilis [12]): 24 mm | zone of inhibition at 300 µg/mL (Bacillus subtilis [13]): 16 mm | zone of inhibition at 200 µg/mL (Bacillus subtilis [14]): 13 mm | zone of inhibition at 100 µg/mL (Bacillus subtilis [15]): 11 mm | zone of inhibition at 50 µg/mL (Bacillus subtilis [16]): 6 mm | zone of inhibition at 500 µg/mL (Staphylococcus aureus [17]): 28 mm | zone of inhibition at 300 µg/mL (Staphylococcus aureus [18]): 18 mm | zone of inhibition at 200 µg/mL (Staphylococcus aureus [19]): 15 mm | zone of inhibition at 100 µg/mL (Staphylococcus aureus [20]): 12 mm | zone of inhibition at 300 µg/mL (Escherichia coli [21]): 22 mm | zone of inhibition at 200 µg/mL (Escherichia coli [22]): 17 mm | zone of inhibition at 100 µg/mL (Escherichia coli [23]): 15 mm | zone of inhibition at 50 µg/mL (Escherichia coli [24]): 10 mm | zone of inhibition at 500 µg/mL (Klebsiella pneumoniae [25]): 34 mm | zone of inhibition at 300 µg/mL (Klebsiella pneumoniae [26]): 25 mm | zone of inhibition at 200 µg/mL (Klebsiella pneumoniae [27]): 20 mm | zone of inhibition at 50 µg/mL (Klebsiella pneumoniae [28]): 11 mm | zone of inhibition at 500 µg/mL (Escherichia coli [29]): 33 mm | zone of inhibition at 100 µg/mL (Klebsiella pneumoniae [30]): 16 mm | zone of inhibition at 50 µg/mL (Staphylococcus aureus [31]): 8 mm | zone of inhibition at 50 µg/mL (Aspergillus flavus [32]): 5 mm | zone of inhibition at 100 µg/mL (Aspergillus flavus [33]): 10 mm | MIC (Aspergillus flavus [34]): 35 µg/mL (≈ 111 µM) | MIC (Aspergillus niger [35]): 30 µg/mL (≈ 94.9 µM) | MIC (Fusarium oxysporum [36]): 25 µg/mL (≈ 79 µM) | MIC (Rhizoctonia solani [37]): 25 µg/mL (≈ 79 µM) | MIC (Bacillus subtilis [38]): 20 µg/mL (≈ 63.2 µM) | MIC (Staphylococcus aureus [39]): 20 µg/mL (≈ 63.2 µM) | MIC (Escherichia coli [40]): 10 µg/mL (≈ 31.6 µM) | MIC (Klebsiella pneumoniae [41]): 10 µg/mL (≈ 31.6 µM) | zone of inhibition at 500 µg/mL (Aspergillus flavus [42]): 24 mm | zone of inhibition at 300 µg/mL (Aspergillus flavus [43]): 17 mm | zone of inhibition at 200 µg/mL (Aspergillus flavus [44]): 13 mm | zone of inhibition at 500 µg/mL (Aspergillus niger [45]): 26 mm | zone of inhibition at 300 µg/mL (Aspergillus niger [46]): 19 mm | zone of inhibition at 200 µg/mL (Aspergillus niger [47]): 15 mm | zone of inhibition at 100 µg/mL (Aspergillus niger [48]): 11 mm
